The results in this text go back to doi:10.1101/2023.09.30.560269v1 (biorxiv, 2023).

The structures appear in SMILES notation.

The target of one assay is T1, hLIFR and CD130 (IL6ST); LIFR/gp130 (Homo sapiens, UniProt P42702).
T1 sequence (P42702 45-1097): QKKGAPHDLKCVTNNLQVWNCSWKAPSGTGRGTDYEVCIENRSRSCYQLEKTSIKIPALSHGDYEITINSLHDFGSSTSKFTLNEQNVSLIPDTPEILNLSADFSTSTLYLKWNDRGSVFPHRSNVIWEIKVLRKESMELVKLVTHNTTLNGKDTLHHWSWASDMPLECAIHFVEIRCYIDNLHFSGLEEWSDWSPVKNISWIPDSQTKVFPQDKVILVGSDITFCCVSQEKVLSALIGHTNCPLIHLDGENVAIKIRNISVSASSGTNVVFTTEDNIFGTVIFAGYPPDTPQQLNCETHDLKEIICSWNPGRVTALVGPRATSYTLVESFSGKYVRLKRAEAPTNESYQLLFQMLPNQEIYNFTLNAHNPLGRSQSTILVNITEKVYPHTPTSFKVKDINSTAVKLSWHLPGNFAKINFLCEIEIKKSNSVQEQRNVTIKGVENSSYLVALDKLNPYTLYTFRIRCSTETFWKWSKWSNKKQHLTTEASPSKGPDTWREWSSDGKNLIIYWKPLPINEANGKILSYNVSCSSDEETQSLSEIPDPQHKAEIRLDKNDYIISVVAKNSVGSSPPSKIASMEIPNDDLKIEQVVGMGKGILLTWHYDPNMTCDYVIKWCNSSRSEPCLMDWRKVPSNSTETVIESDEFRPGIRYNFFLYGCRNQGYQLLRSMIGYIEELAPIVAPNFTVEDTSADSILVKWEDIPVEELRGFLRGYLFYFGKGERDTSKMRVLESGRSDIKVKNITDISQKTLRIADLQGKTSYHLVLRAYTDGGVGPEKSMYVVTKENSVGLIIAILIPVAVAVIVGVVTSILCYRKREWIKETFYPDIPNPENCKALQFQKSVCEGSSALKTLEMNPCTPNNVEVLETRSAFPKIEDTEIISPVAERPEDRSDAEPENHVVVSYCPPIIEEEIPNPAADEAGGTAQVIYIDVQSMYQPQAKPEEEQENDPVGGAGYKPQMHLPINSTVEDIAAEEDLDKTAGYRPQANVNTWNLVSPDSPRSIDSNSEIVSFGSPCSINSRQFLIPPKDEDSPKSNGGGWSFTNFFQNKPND
Kind of assay: STAT3. Type of assay: cell-based.
For `C[C@H](CCC(=O)O)[C@H]1CC[C@H]2[C@@H]3CC[C@@H]4C[C@H](O)CC[C@]4(C)[C@H]3C[C@H](O)[C@]12C` [DCA], the IC50 is about 6.2 µM.
In turn, `C[C@H](CCC(=O)NCC(=O)O)[C@H]1CC[C@H]2[C@@H]3CC[C@@H]4C[C@H](O)CC[C@]4(C)[C@H]3CC[C@]12C` [GLCA] yielded an IC50 of about 9.8 µM.

In the next assay the target is T2, hLIFR (recombinant human LIFR, His Tag) (Homo sapiens, UniProt P42702).
T2 sequence (P42702 45-833 limits assumed): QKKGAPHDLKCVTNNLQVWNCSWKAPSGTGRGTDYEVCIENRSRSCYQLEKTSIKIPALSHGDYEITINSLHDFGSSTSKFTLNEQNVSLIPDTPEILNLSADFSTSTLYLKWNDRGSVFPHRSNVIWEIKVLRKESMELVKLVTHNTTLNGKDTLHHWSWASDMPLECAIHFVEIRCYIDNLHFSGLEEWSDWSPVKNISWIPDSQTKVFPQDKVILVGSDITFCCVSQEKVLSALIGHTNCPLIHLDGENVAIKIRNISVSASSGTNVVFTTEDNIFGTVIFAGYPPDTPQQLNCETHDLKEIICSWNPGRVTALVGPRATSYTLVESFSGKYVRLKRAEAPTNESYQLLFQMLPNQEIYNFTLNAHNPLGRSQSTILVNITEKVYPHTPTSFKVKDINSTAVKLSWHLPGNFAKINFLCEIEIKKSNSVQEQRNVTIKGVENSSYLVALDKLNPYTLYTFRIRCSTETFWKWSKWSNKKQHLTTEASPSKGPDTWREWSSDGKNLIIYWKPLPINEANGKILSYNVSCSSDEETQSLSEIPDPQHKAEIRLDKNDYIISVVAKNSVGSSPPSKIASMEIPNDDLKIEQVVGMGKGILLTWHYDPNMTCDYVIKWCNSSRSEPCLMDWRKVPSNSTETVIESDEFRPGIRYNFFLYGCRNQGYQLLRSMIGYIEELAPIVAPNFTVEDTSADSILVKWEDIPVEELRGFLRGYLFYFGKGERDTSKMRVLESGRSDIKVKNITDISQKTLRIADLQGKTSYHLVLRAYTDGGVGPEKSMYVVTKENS
Nature of the assay: AlphaScreen, inhibition of LIFR/LIF binding.
As for `C[C@H](CCC(=O)O)[C@H]1CC[C@H]2[C@@H]3CC[C@@H]4C[C@H](O)CC[C@]4(C)[C@H]3C[C@H](O)[C@]12C` [DCA], the concentration for half-maximal inhibition (IC50) was 18.4 µM.
On the same count and under the same terms, next, `C[C@H](CCC(=O)NCC(=O)O)[C@H]1CC[C@H]2[C@@H]3[C@H](O)C[C@@H]4C[C@H](O)CC[C@]4(C)[C@H]3CC[C@]12C` [GCDCA]: 50.6 µM; `C[C@H](CCC(=O)NCC(=O)O)[C@H]1CC[C@H]2[C@@H]3CC[C@@H]4C[C@H](O)CC[C@]4(C)[C@H]3CC[C@]12C` [GLCA]: 23 µM; `C[C@H](CCC(=O)NCCS(=O)(=O)O)[C@H]1CC[C@H]2[C@@H]3[C@H](O)C[C@@H]4C[C@H](O)CC[C@]4(C)[C@H]3CC[C@]12C` [TCDCA]: 38 µM.
